Experimental data reported in patent US20230220047A1, “PEPTIDES FOR TREATMENT OF SEPSIS AND CANCER” (NORWEGIAN UNIVERSITY OF SCIENCE AND TECHNOLOGY (NTNU), priority 2020, published 2023).

Tests used:
primary human monocytes = experiment: Confocal analysis of E. coli particle uptake by primary human monocytes; type: cell-based; details: 3 μM, similar extent as P7-Pen
Protocol: Cells were pre-incubated with Pen or P7-Pen peptides, followed by addition of Alexa Fluor 488-labeled bioparticles for the times indicated (15, 30 or 45 min). Fluorescent bacteria particles were counted by spot-detection in Bitplane Imaris imaging software and used to calculate the number of particles per cell. […] Pre-incubation with 3 μM cytochalasin D (CytoD, and inhibitor of actin polymerization) inhibited uptake of E. coli to a similar extent as P7-Pen.
THP-1 cells, THP-1^cherry cells or human PBMC were seeded in 24-well glass-bottom plates (MatTek Corporation), 125,000 cells/well. The THP-1 cells were differentiated into macrophages with 60 ng/ml PMA for 72 h and thereafter rested for 48 h, whereas the PBMC were used the day after isolation. The P7-penatratin peptide or control peptide was added to the cells 30 min before stimulation at 15 μM concentration. If used, 3 μM cytochalasin D (CytoD) was added simultaneously. […] A spot detection mode in the Bitplan Imaris software was used to define individual phagosomes and cells were counted manually. […] Fluorescence voxel intensity of TRAM^cherry at the phagosome is also presented. Statistical significance was calculated in GraphPad Prism by One-way ANOVA Kruskal-Wallis multiple comparison test. […]

THP-1 cells = experiment: LDH cytotoxicity assay in THP-1 cells; details: CPP screen, 15 μM, 30 min pre-treatment, LPS 100 ng/ml
Protocol: For every assay, separate wells were seeded for the required controls (Spontaneous LDH Release Controls and Maximum LDH Release Control) with the same amount of cells as used for peptide treatments. All supernatants were analysed in triplicate with the average value of technical replicates taken into calculations.
THP-1 cells were pre-treated with increasing concentrations of P7-Arg11 and control peptide Arg11 for 1 h (FIG. 3).

TLR4 [1] = experiment: qPCR of TLR4-mediated cytokine expression in B6 immortalised murine macrophages; type: cell-based, mouse; details: 10 μM, 1 h pre-treatment, LPS 100 ng/ml
Protocol: Cells were pre-treated with 10 μM peptides in cell culture media for 1 h, and stimulated with LPS (100 ng/ml) for increasing lengths of time.
Immortalized bone-derived-macrophages (iBMDM) from wild type, Tram−/− or TIr4−/− C57BL/6 mice were maintained at 37° C. and 5% CO2 in DMEM supplemented with 10% FCS.
(§1) Total RNA was isolated from the cells using Qiazol reagent #79306 from QIAGEN, and chloroform extraction followed by purification on RNeasy Mini columns with DNAse digestion (Qiagen). cDNA was prepared using the Maxima First Strand cDNA Synthesis Kit for quantitative real-time polymerase chain reaction (RT-qPCR) (Thermo Fisher Scientific) according to the manufacturer's protocol. qPCR was performed using the PerfeCTa qPCR FastMix (Quanta Biosciences) in replicates and cycled in a StepOnePlus™ Real-Time PCR cycler. The following TaqMan® Gene Expression Assays (Applied Biosystems®) were used: IFNβ (Hs01077958_s1), TNF (Hs00174128_m1), TBP (Hs00427620_m1), CXCL10 (Hs01124251_g1), IL-6 (Hs00174131_m1) and IL-1β (Hs01555410_m1), for human cells; Ifnβ (Mm00439552_s1), Tnf (Mm00443258_m1), Tbp (Mm01277042_m1) and II-1β (Mm00434228_m1), for mouse cells. No RT controls were negative. The level of TBP mRNA was used for normalisation and results presented as relative expression compared to the control untreated sample. Relative expression was calculated using Pfaffl's mathematical model (Pfaffl, Nucleic Acids Research 29(9): e45, 2001). Results are presented as the mean and SD expression fold change for biological replicates relative to non-stimulated cells. Statistical significance was evaluated in GraphPad Prizm 5.03. Data distribution was assumed to be normal but this was not formally tested. The difference between the two groups was determined by two-tailed t test.
We proceeded with cellular assays to address the effect of peptide pre-treatment on TLR4-mediated cytokine expression in B6 immortalised murine macrophages (FIG. 13). Tested peptides had no cytotoxic effect on B6 murine macrophages (FIG. 13A).

SLAMF1-TRAM interaction = target: T1, SLAMF1-TRAM interaction (Homo sapiens, UniProt Q86XR7); experiment: Co-precipitation of SLAMF1 and TRAM^Flag in the presence of ECFP-tagged peptides; type: binding; details: N-terminal ECFP-tagged peptides, HEK-293T lysates, anti-Flag IP
T1 construct: expressed in transfected cells; host or cells: HEK-293T
T1 sequence (Q86XR7 whole entry): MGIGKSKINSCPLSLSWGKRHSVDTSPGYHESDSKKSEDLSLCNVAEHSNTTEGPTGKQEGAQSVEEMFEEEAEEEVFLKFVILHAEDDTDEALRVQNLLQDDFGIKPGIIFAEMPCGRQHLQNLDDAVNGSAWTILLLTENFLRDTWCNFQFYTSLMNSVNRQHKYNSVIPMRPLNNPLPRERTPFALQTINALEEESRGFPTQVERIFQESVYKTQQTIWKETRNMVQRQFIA
Text: (A) Western blot analysis of SLAMF1 and TRAM^Flag co-precipitated in the presence of CFP-tagged peptides. TRAM^Flag was precipitated from cell lysates on agarose beads and distributed across 15 tubes. […] Unbound proteins/peptides were removed by a washing step, and pecipitates analysed by WB (anti-Flag IPs). Reduced SLAMF1 binding to TRAM indicates inhibition of the TRAM/SLAMF1 interaction by the peptide. (B) Sequences of the peptides that were expressed as ECFP-tagged proteins (N-terminal ECFP). Peptides 4 and 5 are not shown and were not pursued.
HEK293T cells expressing Flag-tagged proteins were lysed using 1×lysis buffer (150 mM NaCl, 50 mM TrisHCl (pH 8.0), 1 mM EDTA, 1% NP40), supplemented with EDTA-free Complete Mini protease Inhibitor Cocktail Tablets and PhosSTOP phosphatase inhibitor cocktail from Roche, 50 mM NaF and 2 mM […] (Sigma). IPs were carried out by rotation of cell lysates at 4° C. for 2 h with anti-flag (M2) agarose (Sigma). Beads were washed 5 times with lysis buffer and heated for 5 min with 1×NuPAGE® LDS Sample Buffer (Thermo Fisher Scientific) before analysis of precipitates by Western blotting. […]
Inhibition of the TRAM-SLAMF1 interaction using SLAMF1-derived peptides was tested. For the first line of experiments, SLAMF1-derived peptides were co-expressed as N-terminal ECFP-tagged proteins together with SLAMF1 and TRAM^FLAG constructs in HEK-293T cells.

[2] = tested on: ANBL-6 multiple myeloma cells; experiment: CellTiter-Glo cell viability assay, ANBL-6; type: cell-based; details: 20 μM, 48 h
Protocol: Minor effects on the proliferation of the IH-1 and RPMI 8226 cell lines are seen. Cells were seeded at the level shown (left-hand bar of each set) then incubated in medium containing water, 10 μM penetratin or 10 μM P7-A4-Pen for 48 hr (except for INA-6 cells, which were incubated with 12.5 μM penetratin or 12.5 μM P7-A4-Pen). The number of viable cells was detected based on quantitation of ATP by luminescent signal in correlation to a standard curve prepared for each cell line. Results are based on 3-5 biological replicates for each condition, error bars show standard deviation of mean.
Cells were seeded and then incubated in growth medium alone or supplemented with water, DMSO, 15 μM penetratin or 15 μM investigational peptide. The growth medium only and H2O—, DMSO- and penetratin-supplemented cultures constituted controls.
The solid horizontal lines show the amount of cells originally seeded. In (A) ANBL-6 cells were seeded at a level of 10,000 cells/well, then incubated in medium supplemented with water, the control peptide C3A-Pen, P7-Pen, P7-A4-Pen, P7-N4-Pen or P7-K2-Pen for 48 hours. The peptides were included at concentrations of 5, 10, 12.5, 15, 20 or 30 μM. Cells were counted at 48 hours. In (B), ANBL-6 cells were seeded at a level of 5000 cells/well, then incubated in medium supplemented with water, P6-Pen, P-P6-Pen, P7-D4-Pen or P7-A4-Pen for 48 hours. Peptides were included at concentrations of 5, 10 or 20 μM. Cells were counted at 48 hours. […] Results are based on 3 biological replicates, error bars show standard deviation of mean.
Multiple myeloma cells JJN-3 (DSMZ (Germany) no. ACC 541), ANBL-6 (Cellosaurus accession number CVCL_5425, obtained from Dr Diane Jelinek, Mayo Clinic, Rochester, Minn.), INA-6 (Cellosaurus accession number CVCL_5209, obtained from Dr M. Gramatzki, University of Erlangen-Nurnberg, Erlangen, Germany), RPMI-8226 (ATCC CCL-155), and IH-1 (Cellosaurus accession number CVCL_WZ44, established from the pleural effusion of a myeloma patient by Myeloma research group, IKOM, NTNU, Trondheim, Norway) were grown in RPMI-1640 (Sigma-Aldrich Norway, Oslo, Norway) supplemented with 100 nM penicillin/streptomycin and 10% FCS, and for ANBL-6, IH-1 and INA-6 cells 2 ng/ml recombinant IL-6 (Gibco, Thermo Fisher Scientific, Waltham, Mass., USA). Murine multiple myeloma Vk*MYC cells were obtained from M.D. Leif Bergsagel (Mayo Clinic, Richester, Minn., USA) and cultured in RPMI-1640 supplemented with 2% human serum (B^+, The blood bank, St Olav's Hospital, Trondheim, Norway), 100 nM penicillin/streptomycin, L-Glutamine (2 mM) and recombinant IL-6 (1 ng/ml). HEK293T (ATCC CRL-3216) were cultured in DMEM with 10% FCS. THP-1 TRAM knockout (KO) and TLR4 KO cell lines, and matching lentivirally transduced control cell lines, were differentiated in the same way as wild type (WT) THP-1. TRAM KO THP-1 cell line is described in Yurchenko et al. (supra).
To evaluate the potential impact of the P7 peptide on proliferation of tumour cells of lymphoid origin, we performed a CellTiter-Glo Luminescent Cell Viability Assay to address proliferation of several multiple myeloma (MM) cell lines. For the assay, cells were incubated for 48 h in respective media containing either solvent (water), 10 μM control peptide (Pen) or the SLAMF1-derived peptide P7-A4-Pen for 48 h (FIG. 32) (with the exception of the INA-6 cells which were incubated with 12.5 μM control peptide or P7-A4-Pen). […] This effect could be mediated by P7-A4-Pen-induced inhibition of signalling pathways that are crucial for driving proliferation and/or survival of MM tumour cells.

TLR4 [3] = experiment: qPCR of LPS-mediated cytokine mRNA expression in THP-1 macrophages; type: cell-based, human; details: 15 μM
Protocol: SW480 (ATCC CCL-228) and Jurkat (ATCC Clone E6-1; TIB-152) cells were cultured in RPMI 1640 (Sigma-Aldrich, Schnelldorf, Germany) supplemented with 10% heat-inactivated FCS, penicillin/streptomycin (Life Technologies) and 20 mM L-Glutamine. THP-1 cells (ATCC TIB-202) were cultured in RPMI-1640 (high-glucose, ATCC) supplemented with 10% heat inactivated foetal calf serum (FCS), 100 nM penicillin/streptomycin and 5 μM β-mercaptoethanol (Sigma). THP-1 cells were differentiated with 60 ng/ml phorbol 12-myristate 13-acetate (PMA, Sigma) for 72 h, followed by 24 or 48 h in medium without PMA.
as §1

STAT1 = experiment: Western blot of STAT1 phosphorylation in LPS-stimulated THP-1 cells; type: cell-based, human; details: 15 μM, compared to control peptide
Protocol: Protein pellets were dissolved by heating protein pellets for 10 min at 95° C. in buffer containing 4 M urea, 1 SDS (Sigma) and NuPAGE® LDS Sample Buffer (4×) (Thermo Fisher Scientific). Otherwise, lysates were made using 1× RIPA lysis buffer (150 mM NaCl, 50 mM TrisHCl (pH 7.5), 1% Triton X100, 5 mM EDTA, protease inhibitors, phosphatase inhibitors). For Western blot analysis we used pre-cast protein gels NuPAGE™ Novex™ and iBlot Transfer Stacks iBlot Gel Transfer Device (Thermo Fisher Scientific). Proteins were transferred to the membrane by dry-blotting using iBlot® 2 NC Regular/Mini Stacks (Life Technologies) in the iBlot 2 Dry Blotting System (Life Technologies). After secondary antibody incubation, membranes were washed and incubated with HRP substrate solution (SuperSignal™ West Femto Maximum Sensitivity Substrate (Thermo Fisher Scientific)). Images were taken using Odyssey® Fc (LI-CORE). Quantification graphs were generated by the analysis of signal intensities for protein bands (protein of interest and endogenous loading control—β-tubulin from the same membrane) using Odyssey software (LI-CORE). Data were normalised to the expression levels of β-tubulin and presented as a relative fold change to the control sample.

C=C1[C@@H](C)[C@H]2[C@H](Cc3ccccc3)NC(=O)[C@]23[C@H](OC(C)=O)/C=C/[C@@](C)(O)C(=O)[C@@H](C)C/C=C/[C@H]3[C@@H]1O [cytochalasin D, reference compound]
uptake of E. coli (primary human monocytes): inhibited

Ac-ITVYASVTLTGKLALKLALKALKAALKLA-NH2 [Peptide P7-KLA]
reduction of LPS-mediated toxicity (LDH assay) (THP-1 cells): most effective | TLR4-mediated Ifnβ, Tnf and Il-1β mRNA expression (TLR4 [1]): strongly inhibited

P6: SEQ ID NO: 2; amino acid sequence of SLAMF1 positions 324-333 (ITVYASVTLP; listed as Homo sapiens) [Peptide P6]
inhibitory effect on SLAMF1-TRAM co-precipitation (SLAMF1-TRAM interaction): highest efficacy | anti-proliferative activity at the highest tested concentration [2]: moderate anti-proliferative

TNSITVYASVTLTESGRRRRRRRRRRR (P3-Arg11) [Peptide P3-Arg11]
LPS-mediated cytokine mRNA expression (TLR4 [3]): not effective | phosphorylation of STAT1 upon LPS stimulation (STAT1): no effect
